# Measured values from US20220167645A1, “METHODS OF IMPROVING FISH FEED CONVERSION RATE AND SURVIVAL” (AQUINOVO LTD., priority 2019, published 2022).
# Numbered stars: 1 amine (or outer) side, 2 acyl side, 3 side chain; on linkers, the order of the positions; unused ones are H or OH. Square brackets hold non-standard residues; d marks the D form. Suc = O=C(CCC(=O)[*:2])[*:1]; NMeV = CN[C@H](C(=O)O)C(C)C; βAla = NCCC(=O)O
# Test system: Tilapia fish
# Experiment: Experiment #3: tilapia fed AN6-coated feed, treatment schedules 1 to 8 (survival, weight, length, size distribution, FCR)
# Assay type: in vivo
# Conditions: for Average weight/fish (g) / Total weight/cage (g) / Average FCR/cage / Average density (body/cage) / Average weight gain/fish (g): D 236 to D 279, % change relative to control; for % big fish (Big fish 279 dph >1000 g) / % small fish (Small fish 279 dph >476 g) / Δ Treatment - Control (%) big fish (>1000 g) / Δ Treatment - Control (%) small fish (>476 g) / Big fish # (Big fish 279 dph >1000 g) / Small fish # (Small fish 279 dph): 279 dph
# Protocol: The following fish feed was used in this experiment: MeM (powder, manufactured by Bern Aqua), Nanolis P1, P2 (pellet sizes of 1 mm, 1.2-1.5 mm, respectively, manufactured by Ocialis) and Tilaphi 2, 3 & 4 (pellet sizes of 2 mm, 3-4 mm & 5.5 mm manufactured by Ocialis). The feed content is in described in Table 4.
# Feed was coated using the following general procedure: Different amounts of the peptide AN6 (SEQ ID NO: 6) were prepared by dissolving the peptide in Tris-HCl solution (50 mM, pH=8.8) in ratio of 15 mg peptide to 1.25 ml Tris-HCl solution. Then, each of the various solutions was mixed with 3 Kg of the basic feed pellets (depending on fish size) using an electric mixer. The peptide-feed mixtures where then dried either in oven at 40° C. for 24 hours or in drying drum (at room temperature) for few hours to form coated pellets.
# Tilapia fish (n=4800) were raised from day 10 (0.05 g) post-hatch (dph) in indoor tanks and then transferred to outdoor cages in ponds (40-279 dph). Each cage/tank is an experimental unit. The fish were fed to apparent satiation 2-4 times a day with feed appropriate to their age and treatment as described in Table 5.
# The trial included total 48 cages representing 8 treatments, with 6 repeats each. Each cage contained about 100 fish. […] Fed to fish throughout the entire growth-trial period (for 279 days); • Treatment 2 (5 ppm from 10 dph for 120 days): The control diet with the addition of 5 mg peptide/kg of diet (Feed F). Fish were fed the peptide enriched diet for 120 days (4 months), from 10 days of age (D0—the first day of the experiment) to 130 days of age (D120), and the control diet during the last 6 months (159 days) (Feed E); • Treatment 3 (10 ppm from 10 dph for 60 days): The control diet with the addition of 10 mg peptide/kg of diet (Feed G). […] Fish were fed the peptide enriched diet for 90 days (3 months) from 10 days of age (D0) to 100 days of age (D90) and the control diet for the last 7 months (189 days) (Feed E); • Treatment 5 (10 ppm from 10 dph for 120 days): The control diet with the addition of 10 mg peptide/kg of diet (Feed G). Fish were fed the peptide enriched diet for 120 days (4 months) from 10 days of age (D0) to 130 days of age (D120) and the control diet for the last 6 months (159 days) (Feed E); • Treatment 6 (10 ppm from 100 dph for 30 days): The control diet with the addition of 10 mg peptide/kg of diet (Feed G). Fish were fed the peptide enriched diet for 30 days (1 month) from 100 days of age (D90) to 130 days of age (D120) and the control diet for the first three months (90 days from D0 to D90) and the last 6 months (159 days) (Feed E); • Treatment 7 (30 ppm from 10 dph for 60 days): The control diet with the addition of 30 mg peptide/kg of diet (Feed H). Fish were fed the peptide enriched diet for 60 days (2 months) from 10 days of age (D0) to 70 days of age (D60), and the control diet during the last 8 months (219 days) (Feed E); • Treatment 8 (30 ppm from 10 dph for 90 days): The control diet with the addition of 30 mg peptide/kg of diet (Feed H). Fish were fed the peptide enriched diet for 90 days (3 months) from 10 days of age (D0) to 100 days of age (D90) and the control diet for the last 7 months (189 days) (Feed E).
# During the experimental period, fish weight and length were measured once a month. Individual fish sex was determined at days 96 and 279 of the experiment. Average fish weight per cage were calculated for each measurement period (FIG. 8). […] Between two weight measurements, average weight gain (FIG. 9A) and daily growth rates (FIG. 9B) were calculated by subtracting the average weight at the beginning and end of the measuring period and dividing by the number of days between.
# In order to determine the efficiency of feed conversion into fish substance in experiments (#1, #2, #3), FCR values which reflect the amount of feed needed to grow a kilogram fish, were calculated for each period and for the entire fish growth period. […]
# [1] = Treatment 5 (10 ppm from 10 dph for 120 days)
# [2] = Treatment 5 (10 ppm from 10 dph for 120 days), female fish, D 96
# [3] = Treatment 5 (10 ppm from 10 dph for 120 days), female fish, D 279
# [4] = Treatment 5 (10 ppm from 10 dph for 120 days), male fish, D 96
# [5] = Treatment 5 (10 ppm from 10 dph for 120 days), male fish, D 279
# [6] = Treatment 6 (10 ppm from 100 dph for 30 days)
# [7] = Treatment 6 (10 ppm from 100 dph for 30 days), of 442 fish
# [8] = Treatment 6 (10 ppm from 100 dph for 30 days), female fish, D 96
# [9] = Treatment 6 (10 ppm from 100 dph for 30 days), female fish, D 279
# [10] = Treatment 6 (10 ppm from 100 dph for 30 days), male fish, D 96
# [11] = Treatment 6 (10 ppm from 100 dph for 30 days), male fish, D 279
# [12] = Treatment 7 (30 ppm from 10 dph for 60 days)
# [13] = Treatment 7 (30 ppm from 10 dph for 60 days), of 427 fish
# [14] = Treatment 7 (30 ppm from 10 dph for 60 days), female fish, D 96
# [15] = Treatment 7 (30 ppm from 10 dph for 60 days), female fish, D 279
# [16] = Treatment 7 (30 ppm from 10 dph for 60 days), male fish, D 96
# [17] = Treatment 7 (30 ppm from 10 dph for 60 days), male fish, D 279
# [18] = Treatment 8 (30 ppm from 10 dph for 90 days)
# [19] = Treatment 8 (30 ppm from 10 dph for 90 days), of 446 fish
# [20] = Treatment 8 (30 ppm from 10 dph for 90 days), female fish, D 96
# [21] = Treatment 8 (30 ppm from 10 dph for 90 days), female fish, D 279
# [22] = Treatment 8 (30 ppm from 10 dph for 90 days), male fish, D 96
# [23] = Treatment 8 (30 ppm from 10 dph for 90 days), male fish, D 279
substance,measurement,setting,value
Succ-Asp-Ser- D-Trp -N(Me)Val-βAla-Leu-Met-NH2 (Suc-DS[dW][NMeV][βAla]LM-NH2; SMILES CSCC[C@H](NC(=O)[C@H](CC(C)C)NC(=O)CCNC(=O)[C@H](C(C)C)N(C)C(=O)[C@@H](Cc1c[nH]c2ccccc12)NC(=O)[C@H](CO)NC(=O)[C@H](CC(=O)O)NC(=O)CCC(=O)O)C(N)=O) [AN6],Average weight/fish (g),[1],3.29%
same,Total weight/cage (g),[1],1.28%
same,Length/fish (cm) Mean,[2],15.95 cm
same,Weight/fish (g) Mean,[2],82.96 g
same,Δ Mean % (Treatment vs. control) Length/fish,[2],1.01%
same,Δ Mean % (Treatment vs. control) Weight/fish,[2],0.90%
same,Length/fish (cm) Mean,[3],30.33 cm
same,Weight/fish (g) Mean,[3],611.23 g
same,Δ Mean % (Treatment vs. control) Length/fish,[3],0.66%
same,Δ Mean % (Treatment vs. control) Weight/fish,[3],1.55%
same,Length/fish (cm) Mean,[4],17.08 cm
same,Weight/fish (g) Mean,[4],100.46 g
same,Δ Mean % (Treatment vs. control) Length/fish,[4],−0.81%
same,Δ Mean % (Treatment vs. control) Weight/fish,[4],−4.78%
same,Length/fish (cm) Mean,[5],34.21 cm
same,Weight/fish (g) Mean,[5],859.1 g
same,Δ Mean % (Treatment vs. control) Length/fish,[5],−0.49%
same,Δ Mean % (Treatment vs. control) Weight/fish,[5],−0.72%
same,% big fish (Big fish 279 dph >1000 g),[6],12.9%
same,% small fish (Small fish 279 dph >476 g),[6],6.6%
same,Δ Treatment - Control (%) big fish (>1000 g),[6],2.7%
same,Δ Treatment - Control (%) small fish (>476 g),[6],−2.6%
same,Big fish # (Big fish 279 dph >1000 g),[7],57
same,Small fish # (Small fish 279 dph),[7],29
same,Average FCR/cage,[6],0.00%
same,Average density (body/cage),[6],−1.55%
same,Average weight gain/fish (g),[6],2.11%
same,Average weight/fish (g),[6],0.97%
same,Total weight/cage (g),[6],−0.53%
same,Length/fish (cm) Mean,[8],16.04 cm
same,Weight/fish (g) Mean,[8],87.28 g
same,Δ Mean % (Treatment vs. control) Length/fish,[8],1.58%
same,Δ Mean % (Treatment vs. control) Weight/fish,[8],6.15%
same,Length/fish (cm) Mean,[9],30.45 cm
same,Weight/fish (g) Mean,[9],617.44 g
same,Δ Mean % (Treatment vs. control) Length/fish,[9],1.06%
same,Δ Mean % (Treatment vs. control) Weight/fish,[9],2.58%
same,Length/fish (cm) Mean,[10],17.07 cm
same,Weight/fish (g) Mean,[10],105.78 g
same,Δ Mean % (Treatment vs. control) Length/fish,[10],−0.87%
same,Δ Mean % (Treatment vs. control) Weight/fish,[10],0.27%
same,Length/fish (cm) Mean,[11],34.19 cm
same,Weight/fish (g) Mean,[11],863.26 g
same,Δ Mean % (Treatment vs. control) Length/fish,[11],−0.55%
same,Δ Mean % (Treatment vs. control) Weight/fish,[11],−0.24%
same,% big fish (Big fish 279 dph >1000 g),[12],10.8%
same,% small fish (Small fish 279 dph >476 g),[12],5.4%
same,Δ Treatment - Control (%) big fish (>1000 g),[12],0.5%
same,Δ Treatment - Control (%) small fish (>476 g),[12],−3.7%
same,Big fish # (Big fish 279 dph >1000 g),[13],46
same,Small fish # (Small fish 279 dph),[13],23
same,Average FCR/cage,[12],0.00%
same,Average density (body/cage),[12],−4.89%
same,Average weight gain/fish (g),[12],1.43%
same,Average weight/fish (g),[12],1.37%
same,Total weight/cage (g),[12],−4.56%
same,Length/fish (cm) Mean,[14],15.73 cm
same,Weight/fish (g) Mean,[14],82.52 g
same,Δ Mean % (Treatment vs. control) Length/fish,[14],−0.38%
same,Δ Mean % (Treatment vs. control) Weight/fish,[14],0.36%
same,Length/fish (cm) Mean,[15],30.53 cm
same,Weight/fish (g) Mean,[15],628.2 g
same,Δ Mean % (Treatment vs. control) Length/fish,[15],1.33%
same,Δ Mean % (Treatment vs. control) Weight/fish,[15],4.37%
same,Length/fish (cm) Mean,[16],17.78 cm
same,Weight/fish (g) Mean,[16],109.68 g
same,Δ Mean % (Treatment vs. control) Length/fish,[16],3.25%
same,Δ Mean % (Treatment vs. control) Weight/fish,[16],3.96%
same,Length/fish (cm) Mean,[17],34.04 cm
same,Weight/fish (g) Mean,[17],840.39 g
same,Δ Mean % (Treatment vs. control) Length/fish,[17],−0.99%
same,Δ Mean % (Treatment vs. control) Weight/fish,[17],−2.88%
same,% big fish (Big fish 279 dph >1000 g),[18],20.4%
same,% small fish (Small fish 279 dph >476 g),[18],5.6%
same,Δ Treatment - Control (%) big fish (>1000 g),[18],10.2%
same,Δ Treatment - Control (%) small fish (>476 g),[18],−3.5%
same,Big fish # (Big fish 279 dph >1000 g),[19],91
same,Small fish # (Small fish 279 dph),[19],25
same,Average FCR/cage,[18],−2.14%
same,Average density (body/cage),[18],−0.67%
same,Average weight gain/fish (g),[18],13.57%
same,Average weight/fish (g),[18],7.11%
same,Total weight/cage (g),[18],6.23%
same,Length/fish (cm) Mean,[20],16.17 cm
same,Weight/fish (g) Mean,[20],89.02 g
same,Δ Mean % (Treatment vs. control) Length/fish,[20],2.41%
same,Δ Mean % (Treatment vs. control) Weight/fish,[20],8.27%
same,Length/fish (cm) Mean,[21],30.65 cm
same,Weight/fish (g) Mean,[21],649.16 g
same,Δ Mean % (Treatment vs. control) Length/fish,[21],1.73%
same,Δ Mean % (Treatment vs. control) Weight/fish,[21],7.85%
same,Length/fish (cm) Mean,[22],17.21 cm
same,Weight/fish (g) Mean,[22],106.64 g
same,Δ Mean % (Treatment vs. control) Length/fish,[22],−0.06%
same,Δ Mean % (Treatment vs. control) Weight/fish,[22],1.08%
same,Length/fish (cm) Mean,[23],34.56 cm
same,Weight/fish (g) Mean,[23],912.05 g
same,Δ Mean % (Treatment vs. control) Length/fish,[23],0.52%
same,Δ Mean % (Treatment vs. control) Weight/fish,[23],5.40%
same,average weight of males and females compared to their respective controls,differential analysis of male vs female performances,improved average weight
